Measured values published in US20240279144A1, “CONTROL OF IODIDES IN ACETIC ACID PRODUCTION” (LyondellBasell Acetyls, LLC, priority 2023, published 2024).

Key:
[1] = for solubility, bis(diphenylphosphino) series: acetonitrile or glacial acetic acid (GAA)
[2] = FTIR P═O stretching frequency in acetonitrile as a gauge of basicity; assay type: physicochemical; details: lower frequency = higher basicity
Protocol: FTIR analyses were carried out on a Nicolet 6700 FTIR spectrometer equipped with a 3 bounce zinc selenide (ZnSe) attenuated total reflectance (ATR) crystal assembly. 0.1 mL aliquots of solution were removed from samples via micro-syringe. The solution was then placed on the crystal and an FTIR spectrum was obtained.

[3] = Vapor-liquid-equilibrium (VLE) test: iodide measured in the condensed vapor phase (suppression of HI volatilization); assay type: physicochemical
[4] = pKb (basicity) of Group 15 oxides
[5] = additive 0.05 molar, 0.1M HI, 1.3M H2O (2 wt %), GAA, approximately 140° C.
[6] = additive 0.1 molar, 0.1M HI, 1.3M H2O (2 wt %), GAA, approximately 140° C.

Compound | P═O, cm^−1 [2] | HI (ppm in vapor) [3, 5] | HI (ppm in vapor) [3, 6] [ppm] | other results
c1ccc(P(CCCCCCP(c2ccccc2)c2ccccc2)c2ccccc2)cc1 |  |  |  | solubility, bis(diphenylphosphino) series [1]: insoluble
O=P(c1ccccc1)(c1ccccc1)c1ccccc1 [TPPO, triphenylphosphine oxide, reference compound] | 1,191.6 cm^−1 |  |  | 
c1ccc(P(CCCCP(c2ccccc2)c2ccccc2)c2ccccc2)cc1 |  |  |  | solubility, bis(diphenylphosphino) series [1]: insoluble
O=P(CP(=O)(C1CCCCC1)C1CCCCC1)(C1CCCCC1)C1CCCCC1 [Bis-DiCyPMeO2] | 1,160.1 cm^−1 |  |  | 
O=P(CP(=O)(c1ccccc1)c1ccccc1)(c1ccccc1)c1ccccc1 [Bis-DPPMeO2, bis(diphenylphosphino)methane dioxide] | 1,197.7 cm^−1 | 7,889 ppm | 876 | 
O=[As](c1ccccc1)(c1ccccc1)c1ccccc1 [Ph3AsO, triphenyl arsine oxide] |  |  |  | pKb [4]: 4.15; HI (ppm in vapor) ([3]; Table 5, additive 0.25 molar, 1:1 molar ratio of additive to HI): 1,132 ppm; effectiveness in suppressing volatilization of HI relative to the CMPO ([3]; equivalent molarity, Table 5 conditions): about 7 times; solubility in GAA upon addition of HI ([1]; HI added): soluble; solubility in GAA ([1]; without added HI): soluble
O=P(CCCP(=O)(c1ccccc1)c1ccccc1)(c1ccccc1)c1ccccc1 [Bis-DPPPrO2, bis(diphenylphosphino)propane dioxide] | 1,180.8 cm^−1 | 6,291 ppm | 421 | 
O=P(CCCP(=O)(c1ccccc1)c1ccccc1)(c1ccccc1)c1ccccc1 [Bis-DPPPrO] | 1,180.0 cm^−1 |  |  | 
O=P(CCCCCP(=O)(c1ccccc1)c1ccccc1)(c1ccccc1)c1ccccc1 [Bis-DPPPeO2, bis(diphenylphosphino)pentane dioxide] | 1,178.2 cm^−1 | 5,392 ppm | 683 | 
